Assay results as given in patent US9724422B2, “Human lactoferrin derived peptide for use as an antigen masking agent” (Evonik Roehm GmbH, priority 2010, dated 2017).

Assays:
[1] = Zeta potential of particles measured with Zetasizer; type: physicochemical; settings: PBS pH 7.4, FIG. 2
Method: (§1) Malvern Zetasizer Nano ZS90; Size parameters:
(§2) Material: Protein RI: 1.45 Absorption: 0.00, Dispersant: Water 25° C.: 0.8872 cP RI: 1.330; 37° C.: 0.6864 cP RI: 1.330, Cell: DTS 1060C: Clear disposable zeta cell
(§3) Measurement: Automatic 3 runs, positioning method: seek for optimum position, automatic attention selection, analysis model: general purpose
Zeta parameters: Dielectric constant: 78.5 at 25° C. and 74.4 at 37° C.
Model: Smoluchowski F(KA)value: 1.5, measurement: automatic 3 runs Automatic attention selection
(§4) Peptide oxidation: The peptide was dissolved to a concentration below 1 mM (2.75 mg/mL) in phosphate buffered saline (PBS), pH 7.4. (Ph. Eur.), e.g., 5 mg in 10 mL (=0.5 mg/mL). The solution was purged with pure oxygen for 5 minutes at 37° C. Incubate for 2 h at 37° C.
(§5) For the bacterial lysate dilution 1 mL of bacterial cell lysate were diluted up to 10 mL with PBS pH 7.4. (Ph. Eur.).
(§6) Attachment to the lysate particles was achieved by adding 1 ml bacterial lysate (=1.2 mg E. coli) with 0.097714286 mg hLF.
(§7) 20 μL of a 0.5 mg/mL solution of peptide were added to 1 mL of the previously diluted vaccine (0.12 mg/mL) and incubated 2 hours under low stirring, 100-150 rpm, at 4° C., preventing any foam building

[2] = Particle size (diameter) measured with Zetasizer; type: physicochemical; settings: PBS pH 7.4, FIG. 1
Method: as §1, §2, §3, §4, §5, §6, §7

[3] = system: IgG immuno response; assay: Total IgG by ELISA in rats treated with bacterial lysate, hLf fragment or their combination; type: in vivo
Method: Bacterial lysate: Klebsiella pneumoniae CECT 141; 12.000 million bacteria/mL (ten times the final concentration), Standard non-glycerinated formulation, without phenol hLF fragment, […] (SEQ ID NO: 1) oxidised form, as lyophilisate product; dosed in vials of 50 mg each, in 25 mL vials, to be reconstituted and used as stock solution for the length of the assay. Once reconstituted, keep cooled (4° C.)
Reconstitution of the hLF stock solution was performed by reconstitution of the 50 mg hLF fragment in a vial by addition of 20 mL of PBS. It was ensured a complete, proper reconstitution to a clear, homogeneous, particle-free solution. The vial was gently shaken by repeated inversion of the closed vial. The result was the hLF-stock solution for the trial: nominal concentration 2.5 mg/mL.
The hLF dilution for the animal trial was performed daily. For this 1 mL of the reconstituted hLF stock solution were transferred into a new 25 mL vial, followed by adding 21.5 mL of PBS and carefully mixing by repeated inversions of the closed vial to avoid foam formation. The result was the daily stock dilution, nominal concentration 0.1 mg/ml.
4.5 ml of the daily hLf dilution were transferred to a suitable vial (5 ml capacity or bigger), followed by adding 0.5 ml of the 12,000 million bacteria/mL bacterial lysate, and carefully mixing by repeated inversions of the closed vial to avoid foam formation. The result was 5 ml of A+B vaccine, 1200 million bacteria/ml, 0.1 mg hLf fragment/ml, ensuring the ratio 12:1.
4.5 ml of the daily hLf dilution were transferred to a suitable vial (5 ml capacity or bigger), followed by adding 0.5 ml of PBS and carefully mixing by repeated inversions of the closed vial and avoid foam formation. The result was 5 ml of 0.1 mg/ml hLf fragment solution.
0.5 ml of the bacterial lysate (12,000 million bacteria/ml) were transferred to a suitable vial (5 ml capacity or bigger), followed by adding 4.5 ml of PBS, and carefully mixing by repeated inversions of the closed vial and avoid foam formation. […]
The parameter to be measured is total IgG. […]

[4] = target: T1, Albumin (Bos taurus, UniProt P02769); assay: Diffusion kinetics of hLf fragment mixed with protein, time-correlation confocal microscopy with fluorescent labels; type: binding; settings: protein I
T1 construct: purchased
T1 sequence (P02769 25-607): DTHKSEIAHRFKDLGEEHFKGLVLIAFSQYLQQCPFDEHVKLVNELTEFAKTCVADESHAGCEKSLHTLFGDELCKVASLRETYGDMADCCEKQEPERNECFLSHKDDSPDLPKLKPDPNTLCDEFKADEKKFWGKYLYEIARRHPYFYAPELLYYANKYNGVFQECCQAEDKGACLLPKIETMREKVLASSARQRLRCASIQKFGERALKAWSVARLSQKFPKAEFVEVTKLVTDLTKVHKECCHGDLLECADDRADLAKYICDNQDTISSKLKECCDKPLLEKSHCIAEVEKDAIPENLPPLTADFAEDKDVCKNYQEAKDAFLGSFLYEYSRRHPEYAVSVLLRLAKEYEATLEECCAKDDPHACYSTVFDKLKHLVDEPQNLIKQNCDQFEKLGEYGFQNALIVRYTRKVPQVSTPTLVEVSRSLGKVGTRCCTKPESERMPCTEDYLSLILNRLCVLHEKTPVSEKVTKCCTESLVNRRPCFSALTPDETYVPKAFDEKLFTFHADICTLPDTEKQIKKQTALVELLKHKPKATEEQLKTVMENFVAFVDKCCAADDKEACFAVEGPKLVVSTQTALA
Description: (§8) 3 different classes of cell-culture and blood derived naturally glycosylated proteins were mixed together in a native, that is, physiologically similar standard electrolyte buffer with the concentration shown in the Table with the same 22-mer of the human-lactoferrin peptides described above (using Sequence […] (SEQ ID NO: 1)).
(§9) The protein I is Albumin a blood protein fraction, known in its recombinant human version or as blood-product, protein II is a selective IgG antibody. Both from commercial sources. hLf as the reference moves as “free” in the volume element of the focus of the microscope whereas about 4% or 15% respectively of the fragment are unspecifically bound and moves slower.

[5] = system: IgG antibody; assay: as above; type: binding; settings: protein II, selective IgG antibody
Description: as §8, §9

[6] = Diffusion kinetics of free hLf fragment (reference), time-correlation confocal microscopy with fluorescent labels; type: physicochemical; settings: hLf alone as reference
Description: as §8, §9

KCFQWQRNMRKVRGPPVSCIKR (listed as Homo sapiens) [hLf, human lactoferrin derived peptide, 22-mer, used as antigen masking agent]
Zeta potential (surface charge of particles) [1]: overall positive charge
Particle size (aggregation) [2]: Aggregation is prone to occur
Variation in the IgG levels over time ([3]; independent of the mode of administration (i.p. or intragastric), days 0-27): does not appear to induce any effect on IgG levels over time
IgG levels compared with hLf+extract group ([3]; intragastric, day 6): superior IgG levels
IgG levels compared with control group ([3]; intraperitoneal, day 6 to day 27): no statistically significant difference
fragment unspecifically bound (moves slower) [4]: about 4%
fragment unspecifically bound (moves slower) [5]: ~15%
TauD1 [6]: 33 us
TauD2 [6]: 1419 us
f1 [6]: 99%
